Results: patent US5508273A, “Substituted phosphonic acids and derivatives useful in treating bone wasting diseases” (priority 1993, dated 1996)

What was measured:
[1] = target: T1, human prostatic tyrosyl phosphatase (Homo sapiens, UniProt P15309); test: biochemical; details: 30 minutes at 37° C., pH 5.5, (14C)-phosphotyrosine substrate; read-out: Tyr-Pase IC50
T1 construct: purchased Sigma Chemical Co
T1 sequence (P15309 33-386): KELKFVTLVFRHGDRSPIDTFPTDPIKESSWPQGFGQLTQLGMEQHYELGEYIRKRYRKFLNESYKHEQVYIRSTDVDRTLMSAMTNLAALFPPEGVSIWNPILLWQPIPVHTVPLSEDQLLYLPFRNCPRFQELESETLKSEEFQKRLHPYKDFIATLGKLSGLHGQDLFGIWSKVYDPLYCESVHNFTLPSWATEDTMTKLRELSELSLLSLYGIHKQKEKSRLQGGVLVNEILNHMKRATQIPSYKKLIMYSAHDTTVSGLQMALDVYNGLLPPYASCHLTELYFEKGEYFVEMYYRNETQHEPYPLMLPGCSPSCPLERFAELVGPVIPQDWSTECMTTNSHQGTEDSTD
Procedure: Inhibition of the activity of tyrosyl protein phosphatase was evaluated by incubating an aliquot of purified human prostatic tyrosyl protein acid phosphatase (Sigma Chemical Co.) with radiolabeled phosphotyrosine. The radiolabeled substrate, (^14 C)-phosphotyrosine, is separated from the product, (^14 C)-tyrosine by ion exchange chromatography and the production of radiolabeled tyrosine is quantified. Test compounds are screened at a concentration of one micromolar to 1 nM. The ability of test compounds to inhibit tyrosyl phosphatase was expressed as the % inhibition at the highest concentration of test compound tested and/or as the IC50 in Table 1.
The test compounds were incubated in the presence of tyrosyl acid phosphatase and radiolabeled substrate {(^14 C)-phosphotyrosine, (NEN Dupont Custom Synthesis)} plus cold O-phospho-L-tyrosine{(10 uM) (Sigma Chemical Co.)} in a 0.05 mM sodium acetate buffer (pH 5.5) for 30 minutes at 37° C. […] The incubation mixture was passed over an ion-exchange column {(Ag 1-X8) (Bio-Rad Laboratories)} and washed with 2.5 ml of distilled, deionized water. The total column effluent containing the radiolabeled product (^14 C-tyrosine) was collected and quantified by liquid scintillation spectroscopy. The test compounds IC50 was calculated using a quantal (all-or-none) dose-response calculation.

[2] = target: T2, Human osteoclastic acid phosphatase (OAP) (Homo sapiens, UniProt P13686); test: Osteoclastic Acid Phosphatase (OAP) inhibition; assay type: biochemical; details: pH 5.0, room temperature, 20 minutes; for IC50: read-out: OAPase IC50; for inhibition at 100 µM: read-out: OAPase % Inh@100 uM
T2 construct: purified from hairy cell leukemia spleen; from tissue; host or cells: human hairy cell leukemia spleen
T2 sequence (P13686 22-325): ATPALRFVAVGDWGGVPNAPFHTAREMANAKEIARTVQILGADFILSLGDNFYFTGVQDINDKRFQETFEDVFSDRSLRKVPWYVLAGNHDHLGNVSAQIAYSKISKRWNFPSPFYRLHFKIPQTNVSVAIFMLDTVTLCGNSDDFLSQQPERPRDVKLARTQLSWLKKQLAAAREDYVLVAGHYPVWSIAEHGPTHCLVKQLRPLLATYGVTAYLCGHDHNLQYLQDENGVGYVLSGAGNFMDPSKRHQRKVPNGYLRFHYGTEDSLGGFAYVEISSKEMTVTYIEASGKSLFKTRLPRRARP
Procedure: Inhibitors of the enzyme are involved with the stimulation of osteoblast cell proliferation in cell culture which is predictive of enhancement of bone mass and bone formation in vivo. Inhibitors of osteoclastic acid phosphatase prevent the resorptive action of osteoclasts and thereby prevent the degradation of bone mass associated with osteoporosis.
The enzyme was stored at -80° C. and was diluted in 50 mM, pH 5.0, sodium acetate buffer prior to use. Test compounds were dissolved in ethanol, DMSO, or water and tested at 100 μM. The assay measures the ability of the enzyme to dephosphorylate methylumbelliferone phosphate to the product, methylumbelliferone, which is fluorescent. The enzyme assay is performed in 50 mM, pH 5.0, sodium acetate buffer as follows: 5 μL of compound was added to 150 μL Of buffered enzyme solution. […] The reaction was performed at room temperature at pH=5.0 and terminated after 20 minutes by the addition of 50 μL of 4N NaOH. The reaction product, methylumbelliferone, was measured by fluorescence determination using a Dynatech Microfluor Fluorescence detector.

Work on O=P(O)(O)C(c1ccccc1)C1CCCCC1 (stereo not drawn) [Cmpd 4] yielded an IC50 [1] of 6.9 µM and an IC50 [2] of 1.4 µM.
For O=P(O)(O)C(c1ccccc1)C1CCCCCC1 (stereo not drawn) [Cmpd 5], the IC50 [1] was 23.5 µM and the inhibition at 100 µM [2] was 6%.
With O=P(O)(O)C(c1ccc(-c2ccccc2)cc1)C1CCCCC1 (stereo not drawn) [Cmpd 6] the IC50 [1] was 37 µM and the inhibition at 100 µM [2] was 40%.
With Cc1cccc(C(C2CCCCC2)P(=O)(O)O)c1 (stereo not drawn) [Cmpd 7] the inhibition at 100 µM [2] was 16%.
Cc1ccccc1C(C1CCCCC1)P(=O)(O)O (stereo not drawn) [Cmpd 8] was tested, and the inhibition at 100 µM [2] was 16%.
In the case of O=P(O)(O)C(CCc1ccccc1)c1ccccc1 (stereo not drawn) [Cmpd 9], the IC50 [1] is reported as 13.8 µM and the inhibition at 100 µM [2] is reported as 30%.
Work on Cc1ccccc1C(c1ccccc1)P(=O)(O)O (stereo not drawn) [Cmpd 11] yielded an IC50 [1] of 37.8 µM and an inhibition at 100 µM [2] of 13%.
O=P(O)(O)C(c1ccccc1)c1ccccc1Cl (stereo not drawn) [Cmpd 13] was tested, and the IC50 [1] was 30.7 µM and the inhibition at 100 µM [2] was 12%.
O=P(O)(O)C(c1ccccc1)c1ccccc1C(F)(F)F (stereo not drawn) [Cmpd 14, 2-Trifluoromethylphenyl(phenyl)methylphosphonic Acid] gave an IC50 [1] of 8.9 µM and an inhibition at 100 µM [2] of 9%.
With O=P(O)(O)C(c1ccccc1)c1cccc(Cl)c1 (stereo not drawn) [Cmpd 15] the IC50 [1] was 15 µM and the inhibition at 100 µM [2] was 31%.
O=P(O)(O)C(c1ccccc1)c1cccc(C(F)(F)F)c1 (stereo not drawn) [Cmpd 16] showed an IC50 [1] of 67.1 µM and an inhibition at 100 µM [2] of 26%.
O=[N+]([O-])c1cccc(C(c2ccccc2)P(=O)(O)O)c1 (stereo not drawn) [Cmpd 17] showed an IC50 [1] of 17 µM and an inhibition at 100 µM [2] of 89%.
Cc1cccc(C(c2ccccc2)P(=O)(O)O)c1 (stereo not drawn) [Cmpd 18] gave an IC50 [1] of 14 µM and an inhibition at 100 µM [2] of 4%.
For Cc1ccc(C)c(C(c2ccccc2)P(=O)(O)O)c1 (stereo not drawn) [Cmpd 19, 2,5-Dimethylphenyl(phenyl)methylphosphonic Acid], the IC50 [1] was 36.5 µM and the inhibition at 100 µM [2] was 13%.
With O=P(O)(O)C(c1cccc(C(F)(F)F)c1)c1cccc(C(F)(F)F)c1 [Cmpd 20, bis(3-Trifluoromethylphenyl)methylphosphonic Acid] the IC50 [1] was 29.3 µM and the inhibition at 100 µM [2] was 28%.
Work on O=P(O)(O)C(c1ccccc1)c1ccc(F)cc1 (stereo not drawn) [Cmpd 21] yielded an IC50 [1] of 44.2 µM and an inhibition at 100 µM [2] of 10%.
Work on O=P(O)(O)C(c1ccccc1)c1ccc(C(F)(F)F)cc1 (stereo not drawn) [Cmpd 23] yielded an IC50 [1] of 40.8 µM and an IC50 [2] of 100 µM.
Compound COc1ccc(C(c2ccccc2)P(=O)(O)O)cc1 (stereo not drawn) [Cmpd 24] has an IC50 [1] of 36.6 µM and an inhibition at 100 µM [2] of 28%.
With O=P(O)(O)C(Cc1ccc(-c2ccccc2)cc1)c1ccccc1 (stereo not drawn) [Cmpd 25] the IC50 [1] was 15.7 µM, the inhibition at 100 µM [2] was 94% and the IC50 [2] was 29 µM.
For O=P(O)(O)C(c1ccccc1)c1ccc(Br)cc1 (stereo not drawn) [Cmpd 26], the IC50 [1] was 102 µM and the inhibition at 100 µM [2] was 20%.
O=P(O)(O)C(c1ccccc1)c1ccc(Cl)cc1 (stereo not drawn) [Cmpd 27] gave an IC50 [1] of 142 µM and an inhibition at 100 µM [2] of 17%.
Compound O=P(O)(O)C(c1ccc(-c2ccccc2)cc1)c1ccc(-c2ccccc2)cc1 [Cmpd 28] has an IC50 [1] of 50 to 100 µM, an inhibition at 100 µM [2] of 100% and an IC50 [2] of 17 µM.
Cc1cccc(CC(c2cccc(C(F)(F)F)c2)P(=O)(O)O)c1 (stereo not drawn) [Cmpd 31] showed an IC50 [1] of 36 µM and an inhibition at 100 µM [2] of 25%.
Compound O=P(O)(O)C(Cc1ccc(C(F)(F)F)cc1)c1cccc(C(F)(F)F)c1 (stereo not drawn) [Cmpd 32] has an IC50 [1] of 66.2 µM and an inhibition at 100 µM [2] of 10%.
O=P(O)(O)C(Cc1cccc(C(F)(F)F)c1)c1cccc(C(F)(F)F)c1 (stereo not drawn) [Cmpd 35, 3-Trifluoromethylphenyl(3-trifluoromethylbenzyl)methylphosphonic Acid] gave an IC50 [1] of 9 µM and an IC50 [2] of 100 µM.
Compound O=P(O)(O)C(Cc1ccccc1)c1cccc(C(F)(F)F)c1 (stereo not drawn) [Cmpd 36] has an IC50 [1] of 100 µM and an inhibition at 100 µM [2] of 12%.
O=P(O)(O)C(Cc1ccc(F)cc1)c1cccc(C(F)(F)F)c1 (stereo not drawn) [Cmpd 37] showed an IC50 [1] of 30.6 µM and an inhibition at 100 µM [2] of 25%.
COc1ccc(CC(c2cccc3ccccc23)P(=O)(O)O)cc1 (stereo not drawn) [Cmpd 44] was tested, and the inhibition at 100 µM [2] was 73%.
Compound Cc1ccc(CC(c2cccc3ccccc23)P(=O)(O)O)cc1 (stereo not drawn) [Cmpd 46] has an inhibition at 100 µM [2] of 75%.
O=[N+]([O-])c1ccc(CC(c2cccc3ccccc23)P(=O)(O)O)cc1 (stereo not drawn) [Cmpd 47] was tested, and the inhibition at 100 µM [2] was 80%.
